# Results taken from PubChem BioAssay (NCI).
#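 Compound exposure: 48 hours, 5 concentrations, 96-well plates. TGI denotes the concentration required for complete inhibition of growth.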
# Columns and labels:
# Assay in all cases: inhibition of tumour cell growth, NCI panel, 48 h
# NCI-H23 lung = tested on: NCI-H23 lung
# SK-MEL-2 melanoma = tested on: SK-MEL-2 melanoma
# HOP-92 NSCLC = tested on: HOP-92 NSCLC
# HCC-2998 colon = tested on: HCC-2998 colon
# HS 578T breast = tested on: HS 578T breast
# SK-MEL-5 melanoma = tested on: SK-MEL-5 melanoma
# MDA-MB-435 = tested on: MDA-MB-435
# MDA-MB-231 breast = tested on: MDA-MB-231 breast
# LOX IMVI melanoma = tested on: LOX IMVI melanoma
# HCT-15 colon = tested on: HCT-15 colon
# SR leukemia = tested on: SR leukemia
# OVCAR-5 ovarian = tested on: OVCAR-5 ovarian
# RXF 393 renal = tested on: RXF 393 renal
# NCI-H460 lung = tested on: NCI-H460 lung
# TK-10 renal = tested on: TK-10 renal
# SK-OV-3 ovarian = tested on: SK-OV-3 ovarian
# EKVX NSCLC = tested on: EKVX NSCLC
# UACC-257 melanoma = tested on: UACC-257 melanoma
# K-562 leukemia = tested on: K-562 leukemia
# T-47D breast = tested on: T-47D breast
# RPMI-8226 leukemia = tested on: RPMI-8226 leukemia
# MDA-N = tested on: MDA-N
# NCI/ADR-RES ovarian = tested on: NCI/ADR-RES ovarian
# HOP-62 NSCLC = tested on: HOP-62 NSCLC
# HT29 colon = tested on: HT29 colon
# SF-295 CNS = tested on: SF-295 CNS
# MCF7 breast = tested on: MCF7 breast
# NCI-H522 lung = tested on: NCI-H522 lung
# A498 renal = tested on: A498 renal
# UO-31 renal = tested on: UO-31 renal
# COLO 205 colon = tested on: COLO 205 colon
# A549 NSCLC = tested on: A549 NSCLC
# CCRF-CEM leukemia = tested on: CCRF-CEM leukemia
# SNB-19 CNS = tested on: SNB-19 CNS
# 786-0 renal = tested on: 786-0 renal
# HCT-116 colon = tested on: HCT-116 colon
# U251 CNS = tested on: U251 CNS
# OVCAR-4 ovarian = tested on: OVCAR-4 ovarian
# BT-549 breast = tested on: BT-549 breast
# SW-620 colon = tested on: SW-620 colon
# MOLT-4 leukemia = tested on: MOLT-4 leukemia
# NCI-H226 lung = tested on: NCI-H226 lung
# M14 melanoma = tested on: M14 melanoma
# IGROV1 ovarian = tested on: IGROV1 ovarian
# CAKI-1 renal = tested on: CAKI-1 renal
# SNB-75 CNS = tested on: SNB-75 CNS
# MALME-3M melanoma = tested on: MALME-3M melanoma
# SF-268 CNS = tested on: SF-268 CNS
# ACHN renal = tested on: ACHN renal
# UACC-62 melanoma = tested on: UACC-62 melanoma
# KM12 colon = tested on: KM12 colon
# HL-60(TB) leukemia = tested on: HL-60(TB) leukemia
# OVCAR-8 ovarian = tested on: OVCAR-8 ovarian
# PC-3 prostate = tested on: PC-3 prostate
# OVCAR-3 ovarian = tested on: OVCAR-3 ovarian
# SN12C renal = tested on: SN12C renal
# SF-539 CNS = tested on: SF-539 CNS
# DU-145 prostate = tested on: DU-145 prostate
# SK-MEL-28 melanoma = tested on: SK-MEL-28 melanoma
smiles,measurement,setting,value
COC(=O)CCCC(=O)C(=Nc1c(Cl)cccc1Cl)NNc1ccc(Cl)cc1,TGI,NCI-H23 lung,> 100 µM
same,TGI,SK-MEL-2 melanoma,> 80.3 µM
same,TGI,HOP-92 NSCLC,> 100 µM
same,TGI,HCC-2998 colon,> 100 µM
same,TGI,HS 578T breast,> 100 µM
same,TGI,SK-MEL-5 melanoma,> 90.9 µM
same,TGI,MDA-MB-435,> 100 µM
same,TGI,MDA-MB-231 breast,> 100 µM
same,TGI,LOX IMVI melanoma,> 100 µM
same,TGI,HCT-15 colon,> 100 µM
same,TGI,SR leukemia,> 100 µM
same,TGI,OVCAR-5 ovarian,> 100 µM
same,TGI,RXF 393 renal,> 68.2 µM
same,TGI,NCI-H460 lung,> 100 µM
same,TGI,TK-10 renal,> 100 µM
same,TGI,SK-OV-3 ovarian,> 100 µM
same,TGI,EKVX NSCLC,> 100 µM
same,TGI,UACC-257 melanoma,> 100 µM
same,TGI,K-562 leukemia,> 100 µM
same,TGI,T-47D breast,> 100 µM
same,TGI,RPMI-8226 leukemia,> 100 µM
same,TGI,MDA-N,> 100 µM
same,TGI,NCI/ADR-RES ovarian,> 100 µM
same,TGI,HOP-62 NSCLC,> 100 µM
same,TGI,HT29 colon,> 100 µM
same,TGI,SF-295 CNS,> 100 µM
same,TGI,MCF7 breast,> 100 µM
same,TGI,NCI-H522 lung,> 85.7 µM
same,TGI,A498 renal,88.6 µM
same,TGI,UO-31 renal,> 100 µM
same,TGI,COLO 205 colon,82.4 µM
same,TGI,A549 NSCLC,> 100 µM
same,TGI,CCRF-CEM leukemia,75.3 µM
same,TGI,SNB-19 CNS,> 100 µM
same,TGI,786-0 renal,> 100 µM
same,TGI,HCT-116 colon,> 100 µM
same,TGI,U251 CNS,> 100 µM
same,TGI,OVCAR-4 ovarian,> 100 µM
same,TGI,BT-549 breast,> 100 µM
same,TGI,SW-620 colon,> 100 µM
same,TGI,MOLT-4 leukemia,76.6 µM
same,TGI,NCI-H226 lung,> 100 µM
same,TGI,M14 melanoma,> 100 µM
same,TGI,IGROV1 ovarian,> 100 µM
same,TGI,CAKI-1 renal,> 100 µM
same,TGI,SNB-75 CNS,> 88.9 µM
same,TGI,MALME-3M melanoma,> 100 µM
same,TGI,SF-268 CNS,> 100 µM
same,TGI,ACHN renal,> 100 µM
same,TGI,UACC-62 melanoma,> 100 µM
same,TGI,KM12 colon,> 100 µM
same,TGI,HL-60(TB) leukemia,> 100 µM
same,TGI,OVCAR-8 ovarian,> 100 µM
same,TGI,PC-3 prostate,> 100 µM
same,TGI,OVCAR-3 ovarian,> 100 µM
same,TGI,SN12C renal,> 100 µM
same,TGI,SF-539 CNS,> 100 µM
same,TGI,DU-145 prostate,> 100 µM
same,TGI,SK-MEL-28 melanoma,> 100 µM
CCOC(=O)c1c(SCCN2CCCC2)n(-c2ccccc2)c(=S)n(-c2ccccc2)c1=O,TGI,NCI-H23 lung,27.4 µM
same,TGI,SK-MEL-2 melanoma,28.4 µM
same,TGI,HOP-92 NSCLC,4.48 µM
same,TGI,HCC-2998 colon,3.53 µM
same,TGI,HS 578T breast,> 100 µM
same,TGI,SK-MEL-5 melanoma,10 µM
same,TGI,MDA-MB-435,5.95 µM
same,TGI,MDA-MB-231 breast,4.4 µM
same,TGI,LOX IMVI melanoma,3.79 µM
same,TGI,HCT-15 colon,5.54 µM
same,TGI,SR leukemia,2.05 µM
same,TGI,OVCAR-5 ovarian,> 59.5 µM
same,TGI,RXF 393 renal,3.36 µM
same,TGI,NCI-H460 lung,12.3 µM
same,TGI,TK-10 renal,3.06 µM
same,TGI,SK-OV-3 ovarian,34.5 µM
same,TGI,EKVX NSCLC,27 µM
same,TGI,UACC-257 melanoma,3.34 µM
same,TGI,K-562 leukemia,5.63 µM
same,TGI,T-47D breast,9.41 µM
same,TGI,RPMI-8226 leukemia,5.87 µM
same,TGI,MDA-N,6.01 µM
same,TGI,NCI/ADR-RES ovarian,> 92 µM
same,TGI,HOP-62 NSCLC,36.6 µM
same,TGI,HT29 colon,11.5 µM
same,TGI,SF-295 CNS,> 75.7 µM
same,TGI,MCF7 breast,3.36 µM
same,TGI,NCI-H522 lung,4.08 µM
same,TGI,A498 renal,22.5 µM
same,TGI,COLO 205 colon,3.53 µM
same,TGI,A549 NSCLC,14.6 µM
same,TGI,CCRF-CEM leukemia,4.14 µM
same,TGI,SNB-19 CNS,31.2 µM
same,TGI,786-0 renal,2.89 µM
same,TGI,HCT-116 colon,8.39 µM
same,TGI,U251 CNS,16.7 µM
same,TGI,OVCAR-4 ovarian,27 µM
same,TGI,BT-549 breast,13.9 µM
same,TGI,SW-620 colon,7.58 µM
same,TGI,MOLT-4 leukemia,5.11 µM
same,TGI,NCI-H226 lung,33.9 µM
same,TGI,M14 melanoma,3.25 µM
same,TGI,IGROV1 ovarian,4.47 µM
same,TGI,CAKI-1 renal,5.23 µM
same,TGI,SNB-75 CNS,19.5 µM
same,TGI,MALME-3M melanoma,3.36 µM
same,TGI,SF-268 CNS,10.1 µM
same,TGI,ACHN renal,3.17 µM
same,TGI,UACC-62 melanoma,7.29 µM
same,TGI,KM12 colon,29.8 µM
same,TGI,HL-60(TB) leukemia,3.52 µM
same,TGI,OVCAR-8 ovarian,4.29 µM
same,TGI,PC-3 prostate,3.14 µM
same,TGI,OVCAR-3 ovarian,3.35 µM
same,TGI,SN12C renal,3.18 µM
same,TGI,SF-539 CNS,4.86 µM
same,TGI,DU-145 prostate,3.11 µM
same,TGI,SK-MEL-28 melanoma,7.48 µM
COc1ccc2c(c1)C(=O)c1ccccc1C2,TGI,NCI-H23 lung,> 100 µM
same,TGI,SK-MEL-2 melanoma,> 100 µM
same,TGI,HOP-92 NSCLC,> 100 µM
same,TGI,HCC-2998 colon,> 100 µM
same,TGI,HS 578T breast,> 100 µM
same,TGI,SK-MEL-5 melanoma,> 100 µM
same,TGI,MDA-MB-435,> 100 µM
same,TGI,MDA-MB-231 breast,76.3 µM
same,TGI,LOX IMVI melanoma,> 100 µM
same,TGI,HCT-15 colon,> 100 µM
same,TGI,SR leukemia,> 100 µM
same,TGI,OVCAR-5 ovarian,> 100 µM
same,TGI,RXF 393 renal,28.4 µM
same,TGI,NCI-H460 lung,> 100 µM
same,TGI,TK-10 renal,> 100 µM
same,TGI,SK-OV-3 ovarian,> 100 µM
same,TGI,EKVX NSCLC,> 100 µM
same,TGI,UACC-257 melanoma,> 100 µM
same,TGI,K-562 leukemia,> 100 µM
same,TGI,T-47D breast,67.8 µM
same,TGI,RPMI-8226 leukemia,> 100 µM
same,TGI,MDA-N,> 100 µM
same,TGI,NCI/ADR-RES ovarian,> 100 µM
same,TGI,HOP-62 NSCLC,> 100 µM
same,TGI,HT29 colon,> 100 µM
same,TGI,SF-295 CNS,> 100 µM
same,TGI,MCF7 breast,> 100 µM
same,TGI,NCI-H522 lung,> 100 µM
same,TGI,A498 renal,> 100 µM
same,TGI,UO-31 renal,> 100 µM
same,TGI,COLO 205 colon,> 100 µM
same,TGI,A549 NSCLC,> 100 µM
same,TGI,CCRF-CEM leukemia,> 100 µM
same,TGI,SNB-19 CNS,> 100 µM
same,TGI,786-0 renal,> 100 µM
same,TGI,HCT-116 colon,> 100 µM
same,TGI,U251 CNS,> 100 µM
same,TGI,OVCAR-4 ovarian,> 100 µM
same,TGI,BT-549 breast,> 100 µM
same,TGI,SW-620 colon,> 100 µM
same,TGI,MOLT-4 leukemia,> 100 µM
same,TGI,NCI-H226 lung,> 100 µM
same,TGI,M14 melanoma,> 100 µM
same,TGI,IGROV1 ovarian,> 100 µM
same,TGI,CAKI-1 renal,> 100 µM
same,TGI,SNB-75 CNS,63.5 µM
same,TGI,SF-268 CNS,> 100 µM
same,TGI,ACHN renal,> 100 µM
same,TGI,UACC-62 melanoma,> 100 µM
same,TGI,KM12 colon,> 100 µM
same,TGI,HL-60(TB) leukemia,> 100 µM
same,TGI,OVCAR-8 ovarian,> 100 µM
same,TGI,PC-3 prostate,> 100 µM
same,TGI,OVCAR-3 ovarian,> 100 µM
same,TGI,SN12C renal,> 100 µM
same,TGI,SF-539 CNS,> 100 µM
same,TGI,DU-145 prostate,35 µM
same,TGI,SK-MEL-28 melanoma,> 100 µM
